Reference: PMC9398908, “GLP-1-mediated delivery of tesaglitazar improves obesity and glucose metabolism in male mice” (Nature Metabolism, 2022)
Several values for one entry are separate records, joined by “and”; a condition that tells them apart may be missing. Equal entries are not always repeated.

How the values were obtained:
PPARγ2/RXR = target: T1, PPARγ2/RXR (Homo sapiens, UniProt P37231); test: RXR-Rluc8 / PPARγ2-YFP heterodimerization (BRET) in hGLP-1R(+) HEK293T cells; format: cell-based; settings: GLP-1R (+), 1μM
T1 construct: host or cells: HEK293T, with (A8) or without (A9) co-expressed hGLP-1R
T1 sequence (P37231 1-505): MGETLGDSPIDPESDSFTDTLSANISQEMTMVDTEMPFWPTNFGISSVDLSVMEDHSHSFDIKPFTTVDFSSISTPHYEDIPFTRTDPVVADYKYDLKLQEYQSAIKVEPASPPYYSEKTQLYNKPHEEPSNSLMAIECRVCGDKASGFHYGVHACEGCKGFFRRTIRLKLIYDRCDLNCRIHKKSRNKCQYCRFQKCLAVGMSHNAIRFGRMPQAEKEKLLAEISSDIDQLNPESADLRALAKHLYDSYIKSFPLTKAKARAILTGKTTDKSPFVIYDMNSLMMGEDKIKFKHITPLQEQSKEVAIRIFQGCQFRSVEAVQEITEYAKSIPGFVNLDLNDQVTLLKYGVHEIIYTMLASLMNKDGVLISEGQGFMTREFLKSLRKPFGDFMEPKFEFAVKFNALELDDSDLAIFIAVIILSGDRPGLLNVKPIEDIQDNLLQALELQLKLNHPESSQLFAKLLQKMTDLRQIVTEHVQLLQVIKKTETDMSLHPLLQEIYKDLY
T1 sequence (P19793 1-462 partner): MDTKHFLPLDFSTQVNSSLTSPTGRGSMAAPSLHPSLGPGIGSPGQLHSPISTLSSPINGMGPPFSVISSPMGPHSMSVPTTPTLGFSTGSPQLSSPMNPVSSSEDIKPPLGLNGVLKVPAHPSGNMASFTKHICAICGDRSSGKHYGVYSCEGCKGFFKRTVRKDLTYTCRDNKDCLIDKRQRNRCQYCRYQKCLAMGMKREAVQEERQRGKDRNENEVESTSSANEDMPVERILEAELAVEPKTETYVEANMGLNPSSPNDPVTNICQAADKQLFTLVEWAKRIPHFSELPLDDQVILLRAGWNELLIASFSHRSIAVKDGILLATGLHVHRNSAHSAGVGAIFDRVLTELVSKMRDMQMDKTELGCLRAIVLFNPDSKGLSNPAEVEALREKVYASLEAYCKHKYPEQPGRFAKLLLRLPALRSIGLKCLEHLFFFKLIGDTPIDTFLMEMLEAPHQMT
Method: HEK293T cells (700,000 per well) were seeded in six-well plates and incubated to 70% confluency in DMEM (10% FBS, 1% Pen/Strep). Twenty-four hours following seeding, transient transfections were performed using Lipofectamine 2000 (catalogue no. 11668019, Invitrogen) according to the manufacturer’s protocol without including additional transformation carrier DNA.
Twenty-four hours following transfection, HEK293T cells or MIN6 cells were washed with PBS and resuspended in FluoroBrite phenol red-free complete media (catalogue no. A1896701, Life Technologies) containing 5% FBS and 2 mM of L-glutamine (catalogue no. 25030081, Life Technologies). 100,000 cells per well were plated into poly-D-lysine-coated (catalogue no. P6403, Sigma-Aldrich) 96-well white polystyrene LumiNunc plates (catalogue no. 10072151, Thermo Fisher Scientific). After 24 h, the media was replaced with PBS (catalogue no. 10010056, Gibco) containing 10 μM of coelenterazine-h (catalogue no. S2011, Promega) or 1:500 dilution of NanoGlo (catalogue no. N1110, Promega). BRET measurements were taken every 30 s–2 min using a PHERAstar FS multi-mode microplate reader. Baseline measurements were taken after an initial 5 min of incubation with coelenterazine-h or NanoGlo-containing PBS after which cells were then treated with either vehicle (PBS) or respective ligands. The resulting ligand-specific ratiometric BRET signals were normalized to vehicle producing the ‘ligand-induced BRET ratio’[37], followed by an additional normalization step to well-specific baseline readings. Ligand-induced measurements on the temporal scale is represented as the subsequent measurement after time point zero. Positive or negative incremental AUC (+iAUC/−iAUC) were calculated where noted. Each experiment was independently performed at least three times, each with at least three technical replicates for each group.
Untagged hGLP-1R was purchased from Sino Biological Inc. (catalogue no. HG13944-UT), hGLP-1R-GFP was a kind gift from D. Hodson (University of Birmingham), and hGLP-1R-Rluc8 was a kind gift from P. Sexton (Monash University, Melbourne, Australia). Gαs recruitment to the GLP-1R-GFP was quantified using mini-Gαs, a protein probe that translocates to ligand-bound Gαs-coupled G-protein coupled receptors. NES-Nluc-MiniGαs was a gift from K. Pfleger (Harry Perkins Institute of Medical Research, Nedlands, Western Australia, Australia). Intracellular cAMP was measured using the YFP-Epac-Rluc CAMYEL sensor[39]. hGLP-1R-RLUC8 internalization was quantified using the intracellular plasma membrane marker Venus-KRAS[40]. Venus-KRAS was a kind gift from K. Pfleger. GLP-1R-Rluc8 lysosomal colocalization was measured using Lamp1-mNeonGreen. Lamp1-mNeonGreen was a gift from D. Gadella (Addgene plasmid no. 98882). Time-dependent RXR/PPARγ heterodimerization was measured using RXR-Rluc8 and PPARγ2-YFP, both of which were kind gifts from V. Ollendorf[41].

C57BL/6J DIO mice = test: i.p. insulin tolerance test in DIO mice (Fig. 2g,h; Extended Data Fig. 3a,b); format: in vivo, mouse; design: unit not given here; settings: for AOC: ITT, Suppl. Fig. 3b
Method: Glucose tolerance was assessed in 6 h fasted mice after i.p injection of 1.75 g glucose per kg body weight (DIO mice). Insulin tolerance was assessed in 6 h fasted mice after i.p. injection of either 0.75 U Insulin per […] body weight (DIO mice) or 1 U Insulin per […] body weight (db/db mice) (Humalog, Eli Lilly). Tail vein blood glucose was subsequently measured using a handheld glucometer (TheraSense Freestyle) at baseline and after 15, 30, 60 and 120 min.

RXR/PPARγ Heterodimerization (AUC), +iAUC (PPARγ2/RXR; replicate 1): 81.74
RXR/PPARγ Heterodimerization (AUC), +iAUC (PPARγ2/RXR; replicate 2): 115.10
RXR/PPARγ Heterodimerization (AUC), +iAUC (PPARγ2/RXR; replicate 3): 84.31
RXR/PPARγ Heterodimerization (AUC), +iAUC (PPARγ2/RXR; replicate 4): 42.82
RXR/PPARγ Heterodimerization (AUC), +iAUC (PPARγ2/RXR; replicate 5): 35.86
RXR/PPARγ Heterodimerization (AUC), +iAUC (PPARγ2/RXR; replicate 6): 49.17
RXR/PPARγ Heterodimerization (AUC), +iAUC (PPARγ2/RXR; replicate 7): 59.85
RXR/PPARγ Heterodimerization (AUC), +iAUC (PPARγ2/RXR; replicate 8): 106.60
Structure (SMILES): CCO[C@@H](Cc1ccc(OCCc2ccc(OS(C)(=O)=O)cc2)cc1)C(=O)O [tesaglitazar, (S)-2-ethoxy-3-(4-(4-((methylsulfonyl)oxy)phenethoxy)phenyl) propanoic acid]
AUC (C57BL/6J DIO mice; DIO mice, Figure 2h, AUC of the insulin tolerance test, individual mice, one conjugate mouse missinjected): 78.83 and 85.05 and 79.73 and 58.88 and 108.1 and 99.38 and 88.2 and 80.48
AOC (C57BL/6J DIO mice; animal 1 of the group): 151.5
AOC (C57BL/6J DIO mice; animal 2 of the group): 33
AOC (C57BL/6J DIO mice; animal 3 of the group): 29.64
AOC (C57BL/6J DIO mice; animal 4 of the group): 82.26
AOC (C57BL/6J DIO mice; animal 5 of the group): 109.5
AOC (C57BL/6J DIO mice; animal 6 of the group): 165
AOC (C57BL/6J DIO mice; animal 7 of the group): 167
AOC (C57BL/6J DIO mice; animal 8 of the group): 172
